# Assay results reported in publication PMC7587356, “High-Throughput Screening for Inhibitors of the SARS-CoV-2 Protease Using a FRET-Biosensor” (Molecules, 2020).
# Structures can show the parent of a compound that is named as a salt. Where two headings read alike, the source gives them in different places.
# Target: SARS-CoV-2 3CLpro (Severe acute respiratory syndrome coronavirus 2, UniProt P0DTD1)
# Experiment: biochemical
# Type: biochemical
# Design: Replicate_1 / Replicate_2 / mean / mean (LOPAC_screen_w_protease): unit not given here
# Conditions: for inhibition at 5 µM: 4 h
# [1] = sheet LOPAC_screen_w_protease, LOPAC1280 at 5 µM, mean of two replicates
# [2] = sheet LOPAC_screen_w_protease, LOPAC1280 at 5 µM, replicate 1
# [3] = sheet LOPAC_screen_w_protease, LOPAC1280 at 5 µM, replicate 2
# [4] = sheet LOPAC_screen_w_protease, primary screen at 5 µM, mean of two replicates, read-out: mean (LOPAC screen with protease)
# [5] = sheet LOPAC_screen_w_protease, primary screen at 5 µM, replicate 1, read-out: Replicate_1 (LOPAC screen with protease)
# [6] = sheet LOPAC_screen_w_protease, primary screen at 5 µM, replicate 2, read-out: Replicate_2 (LOPAC screen with protease)
# [7] = sheet LOPAC_screen_w_protease, primary screen with protease, compound at 5 µM, mean of two replicates, read-out: mean
# [8] = sheet LOPAC_screen_w_protease, primary screen with protease, compound at 5 µM, replicate 1, read-out: Replicate_1
# [9] = sheet LOPAC_screen_w_protease, primary screen with protease, compound at 5 µM, replicate 2, read-out: Replicate_2
# [10] = LOPAC1280 primary screen with protease, 5 µM compound, replicate 1, read-out: Replicate_1 (LOPAC_screen_w_protease)
# [11] = LOPAC1280 primary screen with protease, 5 µM compound, replicate 2, read-out: Replicate_2 (LOPAC_screen_w_protease)
# [12] = LOPAC1280 primary screen with protease, 5 µM compound, mean of the two replicates
# [13] = LOPAC1280 primary screen with protease, 5 µM compound, replicate 1
# [14] = LOPAC1280 primary screen with protease, 5 µM compound, replicate 2
# [15] = sheet LOPAC_screen_w_protease, primary screen with protease, 5 µM, mean of two replicates
# [16] = sheet LOPAC_screen_w_protease, primary screen with protease, 5 µM, replicate 1
# [17] = sheet LOPAC_screen_w_protease, primary screen with protease, 5 µM, replicate 2
# [18] = sheet LOPAC_screen_w_protease, primary screen with protease, 5 µM, mean of two replicates, read-out: mean
# [19] = sheet LOPAC_screen_w_protease, primary screen with protease, 5 µM, replicate 1, read-out: Replicate_1
# [20] = sheet LOPAC_screen_w_protease, primary screen with protease, 5 µM, replicate 2, read-out: Replicate_2
# [21] = LOPAC1280 primary screen with protease, 5 µM compound, mean of two replicates
# [22] = sheet LOPAC_screen_w_protease, primary screen of LOPAC1280 at 5 µM with protease, mean of the two replicates
# [23] = sheet LOPAC_screen_w_protease, primary screen of LOPAC1280 at 5 µM with protease, replicate 1
# [24] = sheet LOPAC_screen_w_protease, primary screen of LOPAC1280 at 5 µM with protease, replicate 2
smiles,measurement,setting,value
CC(C)(Oc1ccc(C2CC2(Cl)Cl)cc1)C(=O)O (stereo not shown) [Ciprofibrate],inhibition at 5 µM,"sheet LOPAC_screen_w_protease, primary screen with protease, mean of two replicates, read-out: mean",2.4%
same,inhibition at 5 µM,"sheet LOPAC_screen_w_protease, primary screen with protease, replicate 1, read-out: Replicate_1",2.2%
same,inhibition at 5 µM,"sheet LOPAC_screen_w_protease, primary screen with protease, replicate 2, read-out: Replicate_2",2.6%
"CN(C)C(N)=NCCC[C@H](N)C(=O)O.Cl [N^G,N^G-Dimethylarginine hydrochloride]",mean,[1],0.9307
same,Replicate_1,[2],2.142
same,Replicate_2,[3],-0.2808
C[N+](C)(C)CC#CCN1CCCC1=O [Oxotremorine methiodide],inhibition at 5 µM,[4],7.27%
same,inhibition at 5 µM,[5],7.16%
same,inhibition at 5 µM,[6],7.38%
CNc1ccc2oc(C[C@H]3O[C@@]4(CC[C@H]3C)O[C@H]([C@H](C)C(=O)c3ccc[nH]3)[C@H](C)C[C@H]4C)nc2c1C(=O)O [Calcimycin],inhibition at 5 µM,[7],3.09%
same,inhibition at 5 µM,[8],2.08%
same,inhibition at 5 µM,[9],4.1%
NNCc1cccc(O)c1 [3-Hydroxybenzylhydrazine dihydrochloride],inhibition at 5 µM,[10],3.31%
same,inhibition at 5 µM,[11],0.839%
same,mean (LOPAC_screen_w_protease),[12],2.074
CN(C)CC/C=C1/c2ccccc2Sc2ccc(Cl)cc21 [Chlorprothixene hydrochloride],inhibition at 5 µM,"sheet LOPAC_screen_w_protease, LOPAC1280 at 5 µM, mean of two replicates, read-out: mean",1.25%
same,inhibition at 5 µM,"sheet LOPAC_screen_w_protease, LOPAC1280 at 5 µM, replicate 1, read-out: Replicate_1",0.326%
same,inhibition at 5 µM,"sheet LOPAC_screen_w_protease, LOPAC1280 at 5 µM, replicate 2, read-out: Replicate_2",2.17%
CNCC(O)c1ccc(O)c(O)c1.Cl (racemic) [(±)-Epinephrine hydrochloride],Replicate_1,,3.211
same,Replicate_2,,1.4095
same,mean,,2.31
CC(C)NCC(O)COc1cccc2[nH]ccc12 (stereo not drawn) [S(-)-Pindolol],mean (LOPAC_screen_w_protease),[12],1.809
same,Replicate_1 (LOPAC_screen_w_protease),[13],1.519
same,Replicate_2 (LOPAC_screen_w_protease),[14],2.1
same,mean,[15],0.4162
same,Replicate_1,[16],1.799
same,Replicate_2,[17],-0.9667
COc1ccccc1N1CCN(CCCNc2cc(=O)n(C)c(=O)n2C)CC1 [Urapidil hydrochloride],inhibition at 5 µM,[18],-0.372%
same,inhibition at 5 µM,[19],0.127%
same,inhibition at 5 µM,[20],-0.871%
Cl.c1ccc2sc(C3(N4CCCCC4)CCCCC3)cc2c1 [BTCP hydrochloride],mean (LOPAC_screen_w_protease),[12],2.11
same,Replicate_1 (LOPAC_screen_w_protease),[13],1.768
same,Replicate_2 (LOPAC_screen_w_protease),[14],2.452
O=c1onc2cnc3ccccc3n12 [ODQ],mean,"sheet LOPAC_screen_w_protease, primary screen with protease, compound at 5 µM, mean of two replicates",2.809
same,Replicate_1,"sheet LOPAC_screen_w_protease, primary screen with protease, compound at 5 µM, replicate 1",2.693
same,Replicate_2,"sheet LOPAC_screen_w_protease, primary screen with protease, compound at 5 µM, replicate 2",2.926
Nc1nc(Cl)nc2c1ncn2[C@@H]1O[C@H](CO)[C@@H](O)[C@H]1O [2-Chloroadenosine],mean (LOPAC_screen_w_protease),[21],1.409
same,Replicate_1 (LOPAC_screen_w_protease),[13],1.21
same,Replicate_2 (LOPAC_screen_w_protease),[14],1.608
NC(CCCCCP(=O)(O)O)C(=O)O (racemic) [(±)-2-Amino-7-phosphonoheptanoic acid],mean,[22],3.542
same,Replicate_1,[23],3.653
same,Replicate_2,[24],3.43
Br.Cc1o[nH]c(=O)c1CC(N)C(=O)O (racemic) [(±)-AMPA hydrobromide],mean,"sheet LOPAC_screen_w_protease, primary screen with protease, mean of two replicates",2.246
same,Replicate_1,"sheet LOPAC_screen_w_protease, primary screen with protease, replicate 1",3.765
same,Replicate_2,"sheet LOPAC_screen_w_protease, primary screen with protease, replicate 2",0.7264
CN(Cc1cnc2nc(N)nc(N)c2n1)c1ccc(C(=O)N[C@@H](CCC(=O)O)C(=O)O)cc1 [(-)Amethopterin],mean (LOPAC_screen_w_protease),[12],2.014
same,Replicate_1 (LOPAC_screen_w_protease),[13],2.356
same,Replicate_2 (LOPAC_screen_w_protease),[14],1.671
"Cn1c(=O)c2[nH]c(C3CCCC3)nc2n(C)c1=O [8-Cyclopentyl-1,3-dimethylxanthine]",mean,[15],0.2262
same,Replicate_1,[16],2.489
same,Replicate_2,[17],-2.037
N#CC(C#N)=Cc1cc(O)c(O)c(O)c1 [Tyrphostin 25],inhibition at 5 µM,[4],8.52%
same,inhibition at 5 µM,[5],10.5%
same,inhibition at 5 µM,[6],6.57%
O=C(Cc1ccc(Cl)c(Cl)c1)OCCN1CCCC1.O=C(O)C(=O)O [AC 915 oxalate],mean,[1],1.181
same,Replicate_1,[2],1.4848
same,Replicate_2,[3],0.8765
CC[C@@]1(O)C(=O)OCc2c1cc1n(c2=O)Cc2cc3ccccc3nc2-1 [(S)-(+)-Camptothecin],mean,[22],3.282
same,Replicate_1,[23],4.077
same,Replicate_2,[24],2.488
CC(C)C[C@H](NC(=O)[C@@H](O)[C@H](N)Cc1ccccc1)C(=O)O [Bestatin hydrochloride],inhibition at 5 µM,[10],1.1%
same,inhibition at 5 µM,[11],3.15%
same,mean (LOPAC_screen_w_protease),[12],2.127
CCN(CC)CCCC(C)Nc1ccnc2cc(Cl)ccc12 (stereo not shown) [Chloroquine diphosphate],inhibition at 5 µM,read-out: Replicate_1,2.19%
same,inhibition at 5 µM,read-out: Replicate_2,3.74%
same,inhibition at 5 µM,read-out: mean,2.97%
N#Cc1cc2nc([O-])c([O-])nc2cc1[N+](=O)[O-].[Na+].[Na+] [CNQX disodium],mean,"sheet LOPAC_screen_w_protease, LOPAC1280 primary screen at 5 µM, with protease, mean of the two replicates",0.7558
same,Replicate_1,"sheet LOPAC_screen_w_protease, LOPAC1280 primary screen at 5 µM, with protease, replicate 1",2.8399
same,Replicate_2,"sheet LOPAC_screen_w_protease, LOPAC1280 primary screen at 5 µM, with protease, replicate 2",-1.328
Cl.NCCNC(=O)c1ccc(Cl)cc1 [Ro 16-6491 hydrochloride],mean,[15],-0.0598
same,Replicate_1,[16],0.2844
same,Replicate_2,[17],-0.404
Cc1ccc(S(=O)(=O)NC(=O)NN2CCCCCC2)cc1 [Tolazamide],inhibition at 5 µM,[18],-0.908%
same,inhibition at 5 µM,[19],-0.0393%
same,inhibition at 5 µM,[20],-1.78%
NCCSSCCN [Cystamine dihydrochloride],inhibition at 5 µM,[4],14.4%
same,inhibition at 5 µM,[5],14.2%
same,inhibition at 5 µM,[6],14.5%
COc1cc(OC)c(C=C2C(O)=Nc3ccccc32)c(OC)c1 [IC 261],inhibition at 5 µM,[10],1.63%
same,inhibition at 5 µM,[11],1.3%
same,mean (LOPAC_screen_w_protease),[21],1.465
N#CCCN.N#CCCN.O=C(O)/C=C/C(=O)O [3-Aminopropionitrile fumarate],mean,[1],0.9446
same,Replicate_1,[2],1.551
same,Replicate_2,[3],0.3384
"O=C(O)Cc1ccc(O)c(O)c1 [3,4-Dihydroxyphenylacetic acid]",inhibition at 5 µM,read-out: Replicate_1 (LOPAC screen with protease),41.7%
same,inhibition at 5 µM,read-out: Replicate_2 (LOPAC screen with protease),44.4%
same,inhibition at 5 µM,read-out: mean (LOPAC screen with protease),43.1%
Oc1ccc(/C=C/c2cc(O)cc(O)c2)cc1 [Resveratrol],inhibition at 5 µM,read-out: Replicate_2,-6.92%
"Cl.O=c1cc(N2CCOCC2)oc2c(-c3ccccc3)cccc12 [LY-294,002 hydrochloride]",mean,"sheet LOPAC_screen_w_protease, LOPAC1280 primary screen with protease, 5 µM compound, mean of the two replicates",5.665
same,Replicate_1,"sheet LOPAC_screen_w_protease, LOPAC1280 primary screen with protease, 5 µM compound, replicate 1",6.484
same,Replicate_2,"sheet LOPAC_screen_w_protease, LOPAC1280 primary screen with protease, 5 µM compound, replicate 2",4.845
CCCCCC(O)c1cccc(OCc2ccc3ccccc3n2)c1 (stereo not shown) [REV 5901],inhibition at 5 µM,[18],0.337%
same,inhibition at 5 µM,[19],0.269%
same,inhibition at 5 µM,[20],0.406%
NS(=O)(=O)Cc1noc2ccccc12 [Zonisamide sodium],inhibition at 5 µM,"sheet LOPAC_screen_w_protease, LOPAC1280 primary screen at 5 µM, with protease, mean of the two replicates, read-out: mean",0.586%
same,inhibition at 5 µM,"sheet LOPAC_screen_w_protease, LOPAC1280 primary screen at 5 µM, with protease, replicate 1, read-out: Replicate_1",-0.00469%
same,inhibition at 5 µM,"sheet LOPAC_screen_w_protease, LOPAC1280 primary screen at 5 µM, with protease, replicate 2, read-out: Replicate_2",1.18%
c1ccc2c(CC3=NCCN3)cccc2c1 [Naphazoline hydrochloride],inhibition at 5 µM,"sheet LOPAC_screen_w_protease, LOPAC1280 primary screen with protease, 5 µM compound, mean of the two replicates, read-out: mean",4.49%
same,inhibition at 5 µM,"sheet LOPAC_screen_w_protease, LOPAC1280 primary screen with protease, 5 µM compound, replicate 1, read-out: Replicate_1",4.4%
same,inhibition at 5 µM,"sheet LOPAC_screen_w_protease, LOPAC1280 primary screen with protease, 5 µM compound, replicate 2, read-out: Replicate_2",4.59%
N[C@H]1CON=C1O [L-Cycloserine],inhibition at 5 µM,[7],3.14%
same,inhibition at 5 µM,[8],0.423%
same,inhibition at 5 µM,[9],5.86%
"NCC(=O)NCCC(c1ccccc1)c1ccccc1 [N-(3,3-Diphenylpropyl)glycinamide]",mean (LOPAC_screen_w_protease),[21],1.396
same,Replicate_1 (LOPAC_screen_w_protease),[13],1.194
same,Replicate_2 (LOPAC_screen_w_protease),[14],1.598
